This is an account of results in patent US20210145795A1 (priority 2018, published 2021).

The subject of series [1] is USSR H1N1 virus. In words: microbe, parasite or virus in culture. Format: cell-based, influenza A virus.
For series [2], the system named is USSR H1N1 virus. In words: microbe, parasite or virus in culture. Format: cell-based, influenza A virus. This is another data set of the same source.
Series [3] has as its system extracellular Ca^2+ influx. The series can be described thus: Fluo-8 intracellular Ca2+ monitoring assay (NPTr cells; TG also in other cell types). Format: cell-based, pig.
The test system of another series is pdm H1N1 virus. Format: cell-based, influenza A virus.
The next series concerns RIG-I, OAS1 and PKR. Format: cell-based, pig.
Series [4] can be described thus: in vitro. As to conditions: pig.
The test system of another series is NHBE cells. As to conditions: TG concentrations used for priming.
The test system of the next series is influenza A virus. The settings on record: MDCK cells, 0.001 μM TG over 48 h of infection; cited from earlier work.
The subject of series [5] is RSV (A2 strain, ATCC VR-1540). In words: RSV production from primed HEp2 cells (immuno-detection of RSV). Format: cell-based, human respiratory syncytial virus. The procedure:
(§1) Spun supernatants were collected to infect HEp2 cells for 24 h for immuno-detection of RSV. TG doses used to prime HEp2 cells were non-toxic. 30 min TG treated cells were rinsed, cultured overnight and subjected to cell viability assays (CellTiter-Glo® Luminescent Cell Viability Assay kit, Promega. Results are shown in FIG. 22.
Spun supernatants from infected samples were collected to infect HEp2 cells for 24 h for immuno-detection of RSV.
In further experiments, HEp2 cells were first infected with RSV at 0.1 MOI for 24 or 48 h followed by priming with TG or DMSO control for 30 min. Fresh media were used to replace TG containing media of 24 h infected cells; and supernatants collected earlier from 48 h infected cells were used to replace TG containing media of 48 h infected cells. All samples were infected for total period 72 h. Spun supernatants were collected to infect HEp2 cells for 24 h for RSV immuno-detection. DMSO controls were based on combined control supernatants from 24 and 48 h time points.

A further series relates to viral NP and M1 protein. Format: cell-based, influenza A virus. As to conditions: 0.5 μM TG (NPTr, myoblasts) or 0.005 μM TG (NHBE) 30 min, USSR H1N1, 24 h.
A short description of series [6]: in vitro. As to conditions: human.
The next series relates to DDIT3, HSPA5 and HSP90B1. Format: cell-based, pig. As to conditions: NPTr cells.
Series [7] can be described thus: CellTiter-Glo luminescent cell viability assay, HEp2 cells. Format: cell-based. The settings on record: human, HEp-2 cells. As to the method:
as §1

For series [8], the system named is USSR H1N1 virus. Format: cell-based, influenza A virus.
Series [9] has as its system USSR H1N1 virus. Format: cell-based, influenza A virus. This is another data set of the same source.
A further series relates to viral M-gene. Format: cell-based, influenza A virus. As to conditions: NPTr cells.

“Also recorded” adds a separate entry of the source. Where two headings read alike, the source gives them in different places.

As to `CC1=C2CC[C@@H](C)[C@H]2[C@H]2[C@@H](CC1)C2(C)C` [(+)-ledene], in the series on USSR H1N1 virus [1], the progeny virus output result was “dramatic reduction in progeny virus output; also recorded: reduced progeny virus output”. For the same molecule, the “USSR H1N1 virus production” value in the series on USSR H1N1 virus [2] is reported as “reduced USSR H1N1 virus production like that of TG”.
As for `Cc1nnsc1C(=O)Nc1ccc(-n2nc(C(F)(F)F)cc2C(F)(F)F)cc1` [BTP2, reference compound], in the series with USSR H1N1 virus [2], the progeny virus release result was “small increase in progeny virus release”.
As for `CC(=O)C1=C(O)[C@@H]2[C@H]3c4c[nH]c5cccc(c45)C[C@H]3C(C)(C)N2C1=O` [CPA, Cyclopiazonic acid], the “reduction in ATP production” value with NPTr cells (5 μM CPA 30 min, 24 h incubation) came to 8.3%. Moreover, the “concentration from which Ca^2+ influx was detected” value in series [3] is not below 10 µM.
Consider `COc1ccc(OC)c(-c2ccc(NC(=O)c3ccncc3F)cc2)c1` [Synta66, reference compound], for which the progeny virus release result with USSR H1N1 virus [2] is listed as “small increase in progeny virus release”.
For `C/C=C(/C)C(=O)O[C@H]1C(C)=C2[C@H]([C@@H]1OC(=O)CCCCCCC)[C@@](C)(OC(C)=O)C[C@H](OC(=O)CCC)[C@@]1(O)[C@H]2OC(=O)[C@@]1(C)O` [TG, thapsigargin], the “virus production, TG before vs after an initial infection period of 6 h” value in the series on pdm H1N1 virus (NPTr (0.5 μM, pdm H1N1), NHBE (0.01 μM, USSR H1N1), myoblasts (0.5 μM, USSR H1N1), 30 min) was “comparable reduction in virus production”. Further, the “expression of type I IFN associated genes (RIG-I, OAS1) in response to infection” value in the series with RIG-I, OAS1 and PKR (TG priming before or during infection, different cell types) is reported as “consistently increased the expression of type I IFN associated genes”. The virus output result in the series with USSR H1N1 virus [1], with USSR H1N1 virus [2] and with USSR H1N1 virus [9] was “marked reduction in virus output” throughout. The IC50 is 0.00391 µM in the series with USSR H1N1 virus [1] (Influenza A virus, H1N1, NHBE, read-out: USSR virus inhibitory concentration [IC50]); 0.0668 µM in series [5] (human respiratory syncytial virus, 72 h, HEp-2 cells, 3 d infection period); 0.00712 µM in the series with USSR H1N1 virus [2] (Influenza A virus, H1N1, read-out: IC50 (50% reduction of progeny virus)). Also, the progeny virus output entry in the series on USSR H1N1 virus [1] (NHBE cells, 5 nM TG for 30 min) is recorded as “dramatic reduction in progeny virus output”. In addition, the “selectivity index (CC50/IC50)” value was determined as 8572.89 in the series with USSR H1N1 virus [1] (NHBE cells, USSR H1N1) and 7952.21 in the series with USSR H1N1 virus [2] (NPTr cells, USSR H1N1). Besides, the results for the CC50 (in the series “in vitro [4]”; in “in vitro [6]”; in series [7]) were 56.6 µM, 33.5 µM and 90 µM, respectively. The “cytotoxic effect on cell viability (ATP production, caspase 3/7 activity)” value in the series with NPTr cells (NPTr cells, TG concentrations used for priming) is recorded as “no cytotoxic effect on cell viability”; with NHBE cells it was “no cytotoxic effect on cell viability”. The “progeny influenza virus output” value with influenza A virus is “increase progeny influenza virus output”. Also, in series [5] (HEp2 cells, 30 min priming), the “duration of sustained anti-viral effect on RSV after priming” value was “over 48 h”. Also, the “RSV production, priming during infection” value in series [5] (HEp2 cells, TG 30 min at 48 h post-infection) is given as “rapidly effective in blocking virus production”. Moreover, the RSV production result in series [5] (HEp2 cells, TG at non-toxic levels 30 min before infection, RSV 0.1 MOI 3 days) is “blocks RSV production”. In addition, the selectivity index in series [5] (HEp-2 cells, 3 d infection period) worked out at 1346.499. Moreover, the “viral NP and M1 protein” value with viral NP and M1 protein was “no or only small reduction in viral NP and M1 protein”. Further, in the series with DDIT3, HSPA5 and HSP90B1 (TG at non-toxic levels, porcine myoblasts and NHBE cells, dose-dependent), the “expression of ER stress associated genes (DDIT3, HSPA5 and HSP90B1)” value is on record as “consistently elevated ER stress associated genes”. Further, the “Ca^2+ influx” value in series [3] (brief TG exposure (10 min), primary porcine myoblasts, PTECs and NHBE cells, dependent on extracellular Ca^2+) was “modest Ca^2+ influx”. The “duration of the antiviral state” value in the series with USSR H1N1 virus [8], in the series with USSR H1N1 virus [2] and in the series with USSR H1N1 virus [9] was “at least 24 h” in each case. In addition, the virus reduction in the series with USSR H1N1 virus [2] (NPTr cells pre-primed with 0.1 μM TG for 30 min) is 82%; in the series on USSR H1N1 virus [2] (NPTr cells pre-primed with 0.5 μM TG for 30 min), 93%.
On to `C[C@@H]1CC[C@H]2[C@@H](C)C(=O)O[C@@H]3O[C@@]4(C)CC[C@@H]1[C@]32OO4` [artemisinin, reference compound], for which the progeny viral output result in the series on pdm H1N1 virus and in the series on USSR H1N1 virus [2] was “reduces progeny viral output” throughout. Also, in the series with viral M-gene (artemisinin 0.1 μM and 1.0 μM), the “viral M-gene expression” value is “without significant alteration in viral M-gene expression”. In addition, the “USSR H1N1 virus production” value in the series on USSR H1N1 virus [2] is “reduced USSR H1N1 virus production like that of TG”.
For `C=C1C(=O)O[C@@H]2[C@H]3C(C)=CC(=O)C3=C(C)CC[C@@H]12` [dehydroleucodine], the progeny virus output result in the series with USSR H1N1 virus [1] was “reduced progeny virus output”.
With `CC1=C2[C@H](/C=C(\C)C(=O)O)CC[C@@H](C)[C@H]2CC1` [valerenic acid], in the series on USSR H1N1 virus [2], the “USSR H1N1 virus production” value is given as “reduced USSR H1N1 virus production like that of TG”.
As for Tunicamycin [reference compound], the “virus production relative to correspondingly infected TG primed cells” value came to 2.8 times in the series on pdm H1N1 virus (NPTr cells, pdm H1N1, tunicamycin primed vs TG 0.5 μM) and 7.5 times with USSR H1N1 virus [2] (NPTr cells, USSR H1N1, tunicamycin primed vs TG 0.5 μM). For the same molecule, in the series with RIG-I, OAS1 and PKR (NPTr cells, tunicamycin primed), the “expression of type I IFN associated genes (RIG-I, OAS1 and PKR) in response to infection” value was “little change in the expression of type I IFN associated genes”. Besides, the cell viability entry in the series on NPTr cells (NPTr cells, tunicamycin 30 min, non-toxic doses) is “did not affect cell viability”. The “viral M-gene expression” value in the series on viral M-gene (tunicamycin primed) was “without reduction in viral M-gene expression”. In addition, in the series with DDIT3, HSPA5 and HSP90B1 (tunicamycin 1.0 μg/ml vs TG 0.5 μM), the “induction of ER stress associated genes, higher than by TG” value was in the range of 3 to 8.2 fold. For the same molecule, in series [3] (tunicamycin at non-toxic doses), the “Ca^2+ influx” value was “did not induce Ca^2+ influx”. Moreover, the virus production result with USSR H1N1 virus [2] is given as “only slightly reduced virus production”.
Take dehydroleucodine: the “USSR H1N1 virus production” value in the series on USSR H1N1 virus [2] is listed as “reduced USSR H1N1 virus production like that of TG”.
